Assay results reported in patent publication US20110003777A1, “Methods of Treatment Employing Prolonged Continuous Infusion of Belinostat” (TOPOTARGET A/S, priority 2008, published 2011).

Tests used:
[1] = tested on: P388: mouse lymphocytic leukemia; assay: Clonogenic assay with increasing time of exposure, P388; assay type: cell-based
Description: (§1) The data are summarised in FIG. 1, which is a graph of EC50 (μM), as determined using the clonogenic assay described above, as a function of exposure time (hours) for the four cells lines, P388 (diamonds), A2780 (circles), NYH (triangles), and L1210 (squares).

[2] = tested on: A2780: human ovarian cancer; assay: Clonogenic assay with increasing time of exposure, A2780; assay type: cell-based
Description: as §1

[3] = tested on: NYH: human small cell lung cancer; assay: Clonogenic assay with increasing time of exposure, NYH; assay type: cell-based
Description: as §1

[4] = tested on: L1210: mouse lymphocytic leukemia; assay: Clonogenic assay with increasing time of exposure, L1210; assay type: cell-based
Description: as §1

[5] = tested on: human patient with AML (acute myeloid leukemia); assay: Continuous intravenous infusion in a human subject with AML; assay type: in vivo; settings: for Blasts (absolute) / WBC / Platelets: peripheral blood
Description: The patient was a person with AML (acute myeloid leukemia). The patient had arterial hypertension since 1986, hypothyroidism since 1997 (treated with levothyroxin), anorexia, an enlarged spleen, night sweats since 2007, allergic exanthema since January 2008, and conjunctival hemorrhage from February 2007. AML was first diagnosed in December 2006. Prior treatment included four courses of decitabine from July 2007 to November 2007.

[6] = tested on: patients with various solid-tumours; settings: intravenous bolus over 30 minutes, 150 to 1200 mg/m^2, solid tumours (Steele et al., 2008); cited from earlier work
patients = settings: 30 minute intravenous bolus with standard dose carboplatin or paclitaxel (Sinha et al., 2007); cited from earlier work
[7] = reported; cited from earlier work
[8] = water at physiological pH; cited from earlier work
[9] = Day 15, before starting the 2nd cycle

## O=C(/C=C/c1cccc(S(=O)(=O)Nc2ccccc2)c1)NO [Belinostat™, (E)-N-hydroxy-3-(3-phenylsulfamoyl-phenyl)-acrylamide]
[1]; P388, longer incubation (≧16 hours)
  EC50 values: markedly reduced
[1]; P388, short incubation times
  activity in clonogenic assay: weak activity
[2]; A2780, longer incubation (≧16 hours)
  EC50 values: markedly reduced
[2]; A2780, short incubation times
  activity in clonogenic assay: weak activity
[3]; longer incubation (≧16 hours)
  EC50 values: markedly reduced
[3]; short incubation times
  activity in clonogenic assay: weak activity
[4]; L1210, longer incubation (≧16 hours)
  EC50 values: markedly reduced
[4]; L1210, short incubation times
  activity in clonogenic assay: weak activity
[5]; 800 mg/m^2/d continuous i.v. infusion, first cycle
  tolerability of first infusion: tolerated well
[5]; 800 mg/m^2/d, first cycle, planned 48 hours
  time of infusion at interruption due to fever (39° C.), dyspnea, and cough: 37 h
[5]; 800 mg/m^2/d, full 48 hour cycle on Day 15 and Day 16
  tolerability of second cycle: no reports of serious adverse events
[5]; after second 48 hour cycle
  Platelet counts following second cycle: moderately depressed
[5]; human, continuous infusion
  tolerability and efficacy of continuous infusion: feasible, well tolerated and efficacious
[5]; 24 h, pre-treatment 2.4
  Blasts (absolute): 5e+08 L⁻¹
[5]; 24 h, pre-treatment 3.8
  WBC: 1.3e+09 L⁻¹
[5]; 48 h, pre-treatment 2.4
  Blasts (absolute): 2e+08 L⁻¹
[5]; 48 h, pre-treatment 3.8
  WBC: 6e+08 L⁻¹
[5]; Day 5
  Blasts (absolute): 1.6e+09 L⁻¹
  Platelets: 8e+10 L⁻¹
  WBC: 2.8e+09 L⁻¹
[5]; Day 8
  Blasts (absolute): 2e+09 L⁻¹
  Platelets: 3.9e+10 L⁻¹
  WBC: 4.2e+09 L⁻¹
[5]; [9]
  Blasts (absolute): 1.03e+10 L⁻¹
  Platelets: 7.3e+10 L⁻¹
  WBC: 1.21e+10 L⁻¹
[5]; Day 19 (after 2nd cycle)
  Blasts (absolute): 3.8e+09 L⁻¹
  Platelets: 4.2e+10 L⁻¹
  WBC: 4.9e+09 L⁻¹
[5]; Day 22
  Blasts (absolute): 5.6e+09 L⁻¹
  Platelets: 3.3e+10 L⁻¹
  WBC: 7.4e+09 L⁻¹
[5]; Day 26
  Blasts (absolute): 1.26e+10 L⁻¹
  Platelets: 3.4e+10 L⁻¹
  WBC: 1.57e+10 L⁻¹
[6]
  maximum tolerated dose: 1000 mg/m^2
patients
  maximum tolerated dose: 1000 mg/m^2/d
[7]
  plasma half-life: 47 to 86 min
[8]
  solubility in water: sparingly soluble
